pIC50, pKi: −log10 of the molar value. One block for each compound: values may come before it.
Legend:
[1] = test system: HCT-116; experiment: Anticancer activity against human HCT-116 cells assessed as reduction in cell growth by MTT assay; type: functional, cell-based
[2] = test system: HCT-116; experiment: Anti-migratory activity against human HCT116 cells assessed as reduction in cell migration at 0.05 uM incubated for 24 hrs by wound healing assay relative to control; type: functional; set-up: scale not given: the % may be the effect or the level left
[3] = test system: HCT-116; experiment: Antiproliferative activity against human HCT-116 cells by MTT assay; type: functional, cell-based
[4] = test system: MCF7; experiment: Antiproliferative activity against human MCF7 cells by MTT assay; type: functional, cell-based
[5] = test system: SK-OV-3; experiment: Antiproliferative activity against human SK-OV-3 cells by MTT assay; type: functional, cell-based
[6] = biological target: T1, Amine oxidase [flavin-containing] B (Homo sapiens, UniProt P27338); experiment: Binding affinity to MAO-B (unknown origin) measured by MAO-GloTM method
T1 sequence (P27338 whole entry): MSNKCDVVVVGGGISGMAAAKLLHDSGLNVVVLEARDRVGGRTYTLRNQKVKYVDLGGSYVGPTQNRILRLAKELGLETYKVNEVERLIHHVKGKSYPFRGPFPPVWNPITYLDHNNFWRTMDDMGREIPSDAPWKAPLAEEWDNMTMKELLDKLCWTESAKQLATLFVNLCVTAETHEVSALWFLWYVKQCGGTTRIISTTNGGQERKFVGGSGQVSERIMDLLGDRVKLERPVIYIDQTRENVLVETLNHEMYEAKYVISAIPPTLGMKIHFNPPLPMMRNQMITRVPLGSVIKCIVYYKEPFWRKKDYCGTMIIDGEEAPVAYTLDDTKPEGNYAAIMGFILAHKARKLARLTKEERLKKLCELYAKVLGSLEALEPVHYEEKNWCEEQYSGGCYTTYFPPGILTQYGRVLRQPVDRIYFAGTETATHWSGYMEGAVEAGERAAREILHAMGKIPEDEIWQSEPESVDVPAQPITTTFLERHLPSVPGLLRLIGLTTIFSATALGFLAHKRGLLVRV

[7] = test system: LN-229; experiment: Growth inhibition of human LN-229 cells incubated for 48 hrs by trypan blue exclusion assay; type: functional
[8] = biological target: T1, Amine oxidase [flavin-containing] B; experiment: Inhibition of human MAO-B
[9] = test system: LNCaP; experiment: Antiproliferative activity against human LNCap cells assessed as reduction in cell viability incubated for 72 hrs by resazurin dye based assay; type: functional
[10] = biological target: T2, Amine oxidase [flavin-containing] A (Homo sapiens, UniProt P21397); experiment: Binding affinity to human recombinant MAO-A assessed as inhibition constant by MAO-GloTM method
T2 sequence (P21397 whole entry): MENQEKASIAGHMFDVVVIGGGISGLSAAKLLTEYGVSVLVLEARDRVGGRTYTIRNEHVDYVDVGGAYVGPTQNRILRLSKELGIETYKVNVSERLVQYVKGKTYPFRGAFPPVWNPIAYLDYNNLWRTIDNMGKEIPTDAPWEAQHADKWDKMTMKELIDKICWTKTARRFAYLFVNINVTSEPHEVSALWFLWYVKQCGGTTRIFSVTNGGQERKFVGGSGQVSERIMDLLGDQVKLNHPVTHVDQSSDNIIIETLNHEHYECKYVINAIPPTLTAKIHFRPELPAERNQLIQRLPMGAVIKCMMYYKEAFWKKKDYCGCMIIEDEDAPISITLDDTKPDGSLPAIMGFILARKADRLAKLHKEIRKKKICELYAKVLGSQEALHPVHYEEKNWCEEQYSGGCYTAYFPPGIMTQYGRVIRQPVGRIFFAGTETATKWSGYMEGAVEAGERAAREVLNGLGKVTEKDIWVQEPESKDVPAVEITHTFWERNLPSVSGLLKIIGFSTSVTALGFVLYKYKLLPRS

[11] = test system: A549; experiment: Antiproliferative activity against human A549 cells; type: functional, cell-based
[12] = test system: SW1573; experiment: Antiproliferative activity against human SW1573 cells; type: functional, cell-based
[13] = test system: HBL-100; experiment: Antiproliferative activity against human HBL-100 cells; type: functional, cell-based
[14] = test system: T47D; experiment: Antiproliferative activity against human T47D cells; type: functional, cell-based
[15] = test system: WiDr; experiment: Antiproliferative activity against human WiDr cells; type: functional, cell-based
[16] = biological target: T2, Amine oxidase [flavin-containing] A; experiment: Inhibition of MAO-A (unknown origin)

SMILES: C=C(CCCCCCNc1ccccc1OC)Nc1ccc(CCc2ccc(NC(=C)CCCCCCNc3ccccc3OC)cc2)cc1
pKi [6]: > 6.00

SMILES: COc1ccccc1NCCCCCCC(=O)Nc1ccc(CCc2ccc(NC(=O)CCCCCCNc3ccccc3OC)cc2)cc1
GI50 [7]: < 1 µM

SMILES: O=C(Cn1cc(Cn2c(=O)c(Cc3ccccc3)nc3ccccc32)nn1)NNC(=S)Nc1ccccc1
pIC50 [1]: 5.11
Activity [2]: 75%

SMILES: C/C(=N\Nc1nc(-c2cccc([N+](=O)[O-])c2)cs1)c1ccsc1
pIC50 [8]: 8.60

SMILES: O=[N+]([O-])c1ccc(/C=N/Nc2nc(-c3ccccc3)c[se]2)cc1
pIC50 [11]: 4.62
pIC50 [12]: 4.62
pIC50 [13]: 4.62
pIC50 [14]: 4.62
pIC50 [15]: 4.62
pIC50 [16]: 5.14

More lines, main results first:

pIC50 [1]: 4.74
SMILES: O=C(Cn1cc(Cn2c(=O)c(Cc3ccccc3)nc3ccccc32)nn1)N/N=C/c1cccnc1
Activity [2]: 75%

pIC50 [3]: 5.32
pIC50 [4]: 5.32
pIC50 [5]: 5.32
SMILES: CN1CCC2=C(C1)C(c1c[nH]c3ccc(Br)cc13)c1cc(Cl)ccc1O2 (centres undefined)

pIC50 [9]: ~5.00
pKi [10]: 8.13
SMILES: O=c1cc(-c2ccccc2)oc2c(Cl)cc(Cl)cc12

pIC50 [8]: 8.17
SMILES: C/C(=N\Nc1nc(-c2cccc([N+](=O)[O-])c2)cs1)c1cccs1

— ChEMBL document CHEMBL6103558, “The potential of MAO inhibitors as chemotherapeutics in cancer: A literature survey” (Eur J Med Chem, 2025)
